Results on 24 compounds are retold here after patent publication US9840465B2 (priority 2013, dated 2017).

Read-outs that look alike come from different tables or passages of the source.

The test system of experiment [1] is A/PR/8/34 (H1N1), M2 V27T/S31N. The format is cell-based, Influenza A virus.
Experiment [2] relates to Influenza A/California/07/2009 (H1N1), M2 S31N. The format is cell-based, Influenza A virus.
In the next experiment the test system is A/WS/33 (H1N1), M2 S31N. Type of experiment: cell-based, Influenza A virus.
The target in another experiment is M2 22-62 (S31N) (Influenza A virus, UniProt P0DOF5, C50S/S31N). The format is biochemical.
Experiment [3] concerns Influenza A/California/07/2009 (H1N1). Type of experiment: cell-based, Influenza A virus. Particulars: read-out: EC50 against the passage 12 7-resistant mutant.
Experiment [4] relates to Influenza A/Victoria/3/75 (H3N2). In words: microbe, parasite or virus in culture. The format is cell-based.
Experiment [5] relates to Influenza A/California/07/2009 (H1N1), M2 S31N. The note with it: cited from earlier work.
Setting [6] is: read-out: EC50 A/Calif/07/09 (H1N1).
Setting [7] is: read-out: EC50s of the drug components of the incubation mixture.

Turning to `CCCCC1(N)C2CC3CC(C2)CC1C3` (stereo not shown) [Compound 17, (1r,3r,5r,7r)-2-butyladamantan-2-amine], the EC50 in experiment [1] turned out to be 0.3 µM; in experiment [2] (setting [6]), 8.5 µM; in the experiment with A/WS/33 (H1N1), M2 S31N, 355 µM.
For the compound `CC(C)CC1(N)C2CC3CC(C2)CC1C3` (stereo not shown) [Compound 18, (1r,3r,5r,7r)-2-isobutyladamantan-2-amine], the EC50 amounted to 0.3 µM in experiment [1]; 8 µM in experiment [2] (setting [6]); 210 µM in the experiment with A/WS/33 (H1N1), M2 S31N.
As for `CCCCCCC1(N)C2CC3CC(C2)CC1C3` (stereo not shown) [Compound 101, 2-n-hexyl-tricyclo[3.3.1.1^3,7]decan-2-amine], the EC50 turned out to be 0.07 µM in experiment [1]; 0.13 µM in experiment [2] (setting [6]); 13 µM with A/WS/33 (H1N1), M2 S31N. Moreover, the “inhibition of the A/WS/33 strain (in words)” value in the experiment on A/WS/33 (H1N1), M2 S31N was “some inhibitory effect”.
Turning to `C1CCC(C23CC4CC(CC(C4)C2)C3)NC1` (stereo not shown) [Compound 10], the EC50 in experiment [2] (setting [7]) turned out to be 2.8 µM; in experiment [2] (read-out: EC50 ± SE (μM) (N)) it was 7 µM.
For `NC1(Cc2ccccc2)C2CC3CC(C2)CC1C3` (stereo not shown) [Compound 20, (1r,3r,5r,7r)-2-benzyladamantan-2-amine], the EC50 was determined as 1.2 µM in experiment [1]; 8.6 µM in experiment [2] (setting [6]); 280 µM with A/WS/33 (H1N1), M2 S31N.
For `CC1CN(C)C2(C1)C1CC3CC(C1)CC2C3` (stereo not shown) [Compound 345, 1,4-dimethylspiro[pyrrolidine-2,2′-tricyclo [3.3.1.1^3,7]decane]], the EC50 in experiment [2] (setting [6]) is 7 µM.
Still for that read-out and setting: next, `CC1CCNC12C1CC3CC(C1)CC2C3` (stereo not shown) [Compound 343, 3-Methylspiro[pyrrolidine-2,2′-tricyclo[3.3.1.1^3,7]decane]]: 7.2 µM.
As to `C1CCC2(NC1)C1CC3CC(C1)CC2C3` (stereo not shown) [Compound 6], the EC50 in experiment [2] (read-out: EC50 ± SE (μM) (N)) was determined as 19.8 µM. The “H^+ Uptake Rate ± SD (%) (N)” value at M2 22-62 (S31N) is reported as 1.3 ± 5.7 (6) %.
As to `CC(C)(N)C12CC3CC(CC(C3)C1)C2` [Compound 259, 2-(adamantan-1-yl)propan-2-amine], the EC50 is under 0.2 µM in experiment [1]; 24 µM in experiment [2] (setting [6]); 300 µM in the experiment with A/WS/33 (H1N1), M2 S31N.
In the case of `CC1CCC2(C3CC4CC(C3)CC2C4)N1C` (stereo not shown) [Compound 344, 1,5-Dimethylspiro[pyrrolidine-2,2′-tricyclo[3.3.1.1^3,7]decane]], in experiment [2] (setting [6]), the EC50 is 7.7 µM.
On the same count and under the same terms, for `CC1CNC2(C1)C1CC3CC(C1)CC2C3` (stereo not shown) [Compound 342, 4-Methylspiro[pyrrolidine-2,2′-tricyclo[3.3.1.1^3,7]decane]] the value was 9.5 µM.
Consider `NC1(c2ccccc2)C2CC3CC(C2)CC1C3` (stereo not shown) [Compound 19, (1r,3r,5r,7r)-2-phenyladamantan-2-amine], for which the EC50 in experiment [1] is under 0.3 µM; in experiment [2] (setting [6]), 21 µM; in experiment [2] (setting [7]), 9.2 µM; in the experiment with A/WS/33 (H1N1), M2 S31N it was 86 µM.
Regarding `CC1CCN(C)C12C1CC3CC(C1)CC2C3` (stereo not shown) [Compound 346, 1,3-dimethylspiro[pyrrolidine-2,2′-tricyclo [3.3.1.1^3,7]decane]], the EC50 in experiment [2] (setting [6]) amounted to 10.2 µM.
Take `CC1CCC2(N1)C1CC3CC(C1)CC2C3` (stereo not shown) [Compound 341, 5-methylspiro[pyrrolidine-2,2′-tricyclo[3.3.1.1^3,7]decane]]: in experiment [2], the “efficacy against A/California/07/2009 (in words)” value was “less effective than the others”. Further, in experiment [2] (setting [6]), the EC50 amounted to 34 µM.
On to `CCC1CCC2(N1)C1CC3CC(C1)CC2C3` (stereo not shown) [Compound 347, 5-ethylspiro[pyrrolidine-2,2′-tricyclo[3.3.1.1^3,7]decane]], for which the EC50 in experiment [2] (setting [6]) came out at 8.7 µM.
Regarding `NCCN1CCCC12C1CC3CC(C1)CC2C3` (stereo not shown) [Compound 12, 2-((1r,3r,5r,7r)-spiro[adamantane-2,2′-pyrrolidin]-1′-yl)ethan-1-amine], the EC50 in experiment [2] (read-out: EC50 ± SE (μM) (N)) is 2.66 µM. Besides, the “H^+ Uptake Rate ± SD (%) (N)” value at M2 22-62 (S31N) is recorded as 11 ± 18 (4) %.
Regarding `NC1(C23CC4CC(CC(C4)C2)C3)CCCC1` [Compound 9], the EC50 in experiment [2] (setting [7]) worked out at 0.36 µM; in experiment [2] (read-out: EC50 ± SE (μM) (N)), 0.79 µM; in experiment [3] it was 22 ± 2 µM. Moreover, the “H^+ Uptake Rate ± SD (%) (N)” value on M2 22-62 (S31N) is given as 11 ± 25 (3) %.
Regarding `NC12CC3CC(CC(C3)C1)C2` [Amantadine (1), Amantadine, reference compound], the EC50 in experiment [1] was 24 µM; in experiment [2] (setting [6]), 240 µM; in experiment [2] (read-out: EC50 ± SE (μM) (N)), 242 µM; in experiment [4] (Influenza A virus, H3N2, read-out: EC50 ± S.E. (μM)), 2.8 ± 0.3 µM; with A/WS/33 (H1N1), M2 S31N, 24 µM. For the same compound, the “EC50 ± S.E. (μM)” value in experiment [4] was “Inactive”. Besides, in experiment [4], the Resistance development entry is given as “complete during a single 3-4 day passage”. Also, the “H^+ Uptake Rate ± SD (%) (N)” value on M2 22-62 (S31N) is on record as 77 ± 29 (8) %. Further, the “activity against H1N1 (2009) (known)” value in experiment [5] was “inactive”.
As to `O=C1CCC2(N1)C1CC3CC(C1)CC2C3` (stereo not shown) [Compound 3], the EC50 in experiment [2] (read-out: EC50 ± SE (μM) (N)) is 15.6 µM.
Turning to `CC(N)C12CC3CC(CC(C3)C1)C2` (stereo not shown) [Rimantadine (2), Rimantadine, reference compound], the EC50 amounted to 3.3 µM in experiment [1]; 110 µM in experiment [2] (setting [6]); 106 µM in experiment [2] (read-out: EC50 ± SE (μM) (N)); 310 µM in the experiment with A/WS/33 (H1N1), M2 S31N. Besides, the “activity against H1N1 (2009) (known)” value in experiment [5] is “inactive”.
With `NC1(C23CC4CC(CC(C4)C2)C3)CCCCC1` [Compound 13, 1-((3r,5r,7r)-adamantan-1-yl)cyclohexan-1-amine], the EC50 was found to be 3.62 µM in experiment [2] (read-out: EC50 ± SE (μM) (N)) and 10 ± 2 µM in experiment [3].
Take `CCCC1(N)C2CC3CC(C2)CC1C3` (stereo not shown) [Compound 7]: the EC50 in experiment [1] was 0.5 µM; in experiment [2] (setting [6]) it was 4.7 µM; in experiment [2] (read-out: EC50 ± SE (μM) (N)), 4.71 µM; in the experiment on A/WS/33 (H1N1), M2 S31N, 390 µM. Also, the “H^+ Uptake Rate ± SD (%) (N)” value on M2 22-62 (S31N) is listed as 24 ± 17 (6) %.
Take `C1CNC(C23CC4CC(CC(C4)C2)C3)C1` (stereo not shown) [Compound 8]: the EC50 in experiment [2] (read-out: EC50 ± SE (μM) (N)) was found to be 15.4 µM. The “H^+ Uptake Rate ± SD (%) (N)” value at M2 22-62 (S31N) was 12 ± 13 (5) %.
On the same counts, the results for `CC12CC3CC(CC(C3)C13CCCN3)C2` [Compound 11, (1r,3s,5R,7S)-1-methylspiro[adamantane-2,2′-pyrrolidine]] are 36 µM and 17 ± 8.7 (6) %.
